What all share (type): in vivo
Experiment [1] deals with Fimbristylis miliacea (L.) VAHL (FIMMI). Briefly: Herbicidal mixtures for weed control in transplanted paddy rice (in-water application, visual % injury). In a few lines: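 Weeds sown in flooded puddled mineral soil (pH ~7.3–7.8, ~1.0% organic matter) and treated at second–third true leaf stage by injecting acetone/2.5% Agri-dex stock into the paddy water. A, C and D dosed as acid equivalent, partner herbicides as active ingredient. Injury scored visually after 3 weeks in greenhouse, 0–100% versus untreated plants.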

Experiment [2] has as its system scented mayweed (Matricaria chamomila L; MATCH). The experiment is described as follows: Postemergence herbicidal activity of mixtures in cereal crops (greenhouse, visual injury). The conditions noted are these: Matricaria, post-emergence, read-out: MATCH Ob. In a few lines:
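Weeds grown in greenhouse (~14 h photoperiod, ~18/17 °C day/night) to second–third true leaf stage, sprayed postemergence with compound and second cereal herbicide alone or combined; solvent-blank controls. Injury scored visually after 20-22 days, 0–100% (complete kill); expected mixture activity = A+B−(A×B/100).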

Experiment [3] deals with Marsilea crenata PRESL (MASCR). Briefly: Herbicidal mixtures for weed control in transplanted paddy rice (in-water application, visual % injury). In short, it runs like this: (§1)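 Scoring of percent injury is visual, 3 weeks after in-water application, on a scale from 0 to 100. Compounds A, C and D are given as acid equivalent and the ALS, ACCase, auxinic, phytoene desaturase and HPPD partners as active ingredient. Application is at the second or third true leaf stage.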

Experiment [4] concerns Cyperus species (CYPSS). The description is as above. The conditions noted are these: for % Injury CYPES Ob: CYPES = Cyperus esculentus. In a few lines: as §1
The test system of experiment [5] is Leptochloa chinensis (L.) NEES (LEFCH). The description is as above. In a few lines:
as §1

Setting [6] is: Compound A Methyl 17.5 g/ha alone.
Where [7] appears, read: Compound A Methyl 35 g/ha alone.
Where [8] appears, read: Quinclorac 140 g/ha alone (Compound A Methyl half).
[9] abbreviates: Quinclorac 140 g/ha alone (Compound A TEA half).

Consider four compounds from US10556865B2, “Synergistic herbicidal composition containing certain pyridine or pyrimidine carboxylic acids and certain cereal and rice herbicides” (Dow AgroSciences, LLC, priority 2007, dated 2020).

Structures are written as SMILES. Several values for one entry are separate records, joined by “and”; a condition that tells them apart may be missing. Identical values can stand only once. Like-named read-outs stand apart in the source and are kept apart here.

For the compound `COC(=O)c1nc(-c2ccc(Cl)c(OC)c2F)cc(N)c1Cl` [Compound A Methyl, 4-amino-3-chloro-6-(4-chloro-2-fluoro-3-methoxyphenyl)pyridine-2-carboxylic acid methyl ester], the “% Injury Ob” value in experiment [1] (17.5 g/ha alone) is recorded as 20%; in experiment [4] (CYPES, 4.38 g/ha alone) it was 0%; in experiment [4] (CYPES, 8.75 g/ha alone), 15%; in experiment [5] (8.75 g/ha alone), 0%; in experiment [5] (17.5 g/ha alone), 0%; in experiment [5] (35 g/ha alone) it was 0%. Moreover, in experiment [1] (setting [6]), the “% Injury FIMMI Ob” value came out at 20%. For the same compound, the pest or weed control at 17.5 g/ha in experiment [2] (17.5 g/ha) is 15%. For the same compound, the pest or weed control at 35 g/ha in experiment [2] (35 g/ha) turned out to be 68%. Also, the pest or weed control at 70 g/ha in experiment [2] (70 g/ha) is 65%. Besides, the “% Injury MASCR Ob” value in experiment [3] (setting [6]) turned out to be 0%; in experiment [3] (setting [7]) it was 50%. Besides, the results for the “% Injury CYPES Ob” value in experiment [4] (setting [6]) and in experiment [4] (Compound A Methyl 35 g/ha alone (Table 112)) were 50% and 60%, respectively. Further, the “% Injury LEFCH Ob” value was 10% in experiment [5] (setting [6]) and 20% in experiment [5] (setting [7]).
Turning to `COc1c(Cl)ccc(-c2cc(N)c(Cl)c(C(=O)O)n2)c1F` [Compound A TEA, 4-amino-3-chloro-6-(4-chloro-2-fluoro-3-methoxyphenyl)pyridine-2-carboxylic acid], the “% Injury Ob” value is 30% in experiment [1] (17.5 g/ha alone); 0% in experiment [1] (35 g/ha alone); 0% in experiment [1] (70 g/ha alone); 20% and 25% in experiment [4] (CYPES, 35 g/ha alone); 50% in experiment [4] (CYPES, 70 g/ha alone); 10% in experiment [4] (CYPIR, 35 g/ha alone). Further, the “% Injury Ob” value in experiment [4] (CYPIR, 70 g/ha alone) is 20%; in experiment [5] (35 g/ha alone), 80%; in experiment [5] (70 g/ha alone) it was 99%. Besides, in experiment [1] (Compound A TEA 17.5 g/ha alone), the “% Injury FIMMI Ob” value is reported as 30%. Further, the pest or weed control at 8.75 g/ha in experiment [2] (8.75 g/ha alone) and in experiment [2] (8.75 g/ha) was 71% throughout. Moreover, the pest or weed control at 17.5 g/ha in experiment [2] (17.5 g/ha alone) and in experiment [2] (17.5 g/ha) was 76% each time. Also, the pest or weed control at 35 g/ha in experiment [2] (35 g/ha alone) is 84%. In experiment [2] (70 g/ha alone), the pest or weed control at 70 g/ha was found to be 94%. Further, the pest or weed control at 140 g/ha in experiment [2] (140 g/ha) was found to be 65%. In addition, the “% Injury MASCR Ob” value in experiment [3] (Compound A TEA 35 g/ha alone) stood at 60%. Besides, the “% Injury CYPES Ob” value in experiment [4] (Compound A TEA 17.5 g/ha alone) came to 30%; in experiment [4] (Compound A TEA 17.5 g/ha alone (Table 112)), 30%; in experiment [4] (Compound A TEA 35 g/ha alone (Table 112)), 70%. In addition, the “% Injury LEFCH Ob” value in experiment [5] (Compound A TEA 17.5 g/ha alone) came to 10%; in experiment [5] (Compound A TEA 35 g/ha alone) it was 15%.
For `COC(=O)c1nc(-c2ccc(Cl)c(OC)c2F)nc(N)c1Cl` [Compound B Methyl, 6-amino-5-chloro-2-(4-chloro-2-fluoro-3-methoxyphenyl)pyrimidine-4-carboxylic acid methyl ester], the pest or weed control at 8.75 g/ha in experiment [2] (8.75 g/ha alone) stood at 10%. In addition, the pest or weed control at 17.5 g/ha in experiment [2] (17.5 g/ha alone) was 10%. In addition, the pest or weed control at 35 g/ha in experiment [2] (35 g/ha alone) was 40%. For the same compound, in experiment [2] (70 g/ha alone), the pest or weed control at 70 g/ha stood at 45%.
In the case of `O=C(O)c1c(Cl)ccc2cc(Cl)cnc12` [Quinclorac], the “% Injury FIMMI Ob” value in experiment [1] (setting [8]) and in experiment [1] (setting [9]) was 0% each time. For the same compound, the “% Injury MASCR Ob” value in experiment [3] (setting [8]) and in experiment [3] (setting [9]) was 0% in each case. In addition, the “% Injury CYPES Ob” value in experiment [4] (setting [8]) and in experiment [4] (setting [9]) was 0% throughout. The “% Injury LEFCH Ob” value in experiment [5] (setting [8]) and in experiment [5] (setting [9]) was 0% each time.
